For the test, the system named is Rhizoctonia solani. The experiment in a line: Soybean seed treatment test against disease caused by Rhizoctonia solani in contaminated soil. It is filed as in vivo, Rhizoctonia solani on soybean (variety: Natto shoryu). The note with it: seed treatment of soybean; carboxamide compound 0.2 g/100 kg of seeds alone (no sulfoxaflor); cultivated 20 days in soil contaminated by Rhizoctonia solani. The procedure:
A cyclohexanone solution (100 microL) containing prescribed amount (weight) of a test compound was applied on seeds of soybean (variety: Natto shoryu) (10 g) by using a rotary apparatus for seed treatment (Seed dresser, manufactured by Hans-Ulrich Hege GmbH). One day after the application, plastic pot was filled with soil contaminated by Rhizoctonia solani, and the seeds treated with the test compounds were seeded in the soil and cultivated in a glass-greenhouse for 20 days (hereinafter referred to as “treated plot”). Thereafter, the presence of disease caused by Rhizoctonia solani in the young plants which germinated from each seed was observed and disease severity was calculated according to the following calculation formula (1). On the other hand, seeds of soybean which are not treated as above were cultivated in the same way as above (hereinafter referred to as “non-treated plot”) and the disease severity in the “non-treated plot” was calculated in the same way as the above “treated plot”. On the basis of the above severity in “treated plot” and “non-treated plot”, efficacy in “treated plot” was evaluated according to the following calculation formula (2). […]

Turning to `Cc1nn(C)c(C)c1C(=O)Nc1cccc2c1C(C)CC2(C)C` (stereo not shown) [carboxamide compound (5)], the “efficacy (%)” value is listed as 15.8%.

These data come from patent publication US20130059894A1, “PESTICIDAL COMPOSITION AND ITS USE” (SUMITOMO CHEMICAL COMPANY, LIMITED, priority 2010, published 2013).
